In data set [1] the test system is CEM cells. Description: MTT cell viability / cytotoxicity assay in CEM cells. The conditions noted are these: for IC50: Homo sapiens, CCRF-CEM, MTT assay, after 24 h treatment. Type of data set: cell-based, human. The procedure: (§1) Cell cultures. Acute lymphoblastic leukemia cell line CEM and mantle cell lymphoma cell line Granta were obtained from ATCC and cultured in RPMI-1640 (Thermo Fischer) with 10% FBS (HyClone), sodium piruvate (10 mM), HEPES (10 mM) and antibiotics (referred thereafter as complete medium; Thermo Fischer) (Ref 14; incorporated by reference in its entirety). Peripheral blood samples were collected from healthy volunteers. The ethical Committee of the Blokhin Cancer Research Center approved this study, written informed consents were provided. Mononuclear cell fraction was isolated by 1.077 g/ml Ficoll-Isopaque density-gradient centrifugation and cultured in the complete medium. Cells were pretreated with Rapa (0.1-5 uM), LY294002 (10-100 uM), WM (1-10 uM) and AZD8055 (0.1-2 uM) or vehicle for 6 h, then were treated for Dex (1-10 uM) or vehicle for 24-144 h as indicated.
(§2) Analysis of cell viability and apoptosis induction. Cell viability was assessed using the MTT assay as follows: cells were incubated at 37° C. for 3 h with 20 ul of MTT solution (5 mg/ml). Supernatant was discarded and 150 μL of 100% DMSO was added to each well. Optical density was measured at 495 nm using a microplate reader MultiScan MCC 340 (Labsystems). The IC50 values was calculated using Quest Graph IC50 Calculator free software. Isobolograms were constructed (Ref 15; incorporated by reference in its entirety). IC50 values of PI3K inhibitors or Dex as single agents were plotted as 1 on the x and y axes, respectively. Various concentrations of PI3K inhibitors and for Dex were combined. The IC50 values for each compound in the combination were calculated and plotted as a percentage of each single drug. The disposition of data points below, above or on the line of additivity indicates synergy, antagonism or additivity, correspondingly.
(§3) PI3K/Akt/mTOR inhibitors were developed as anti-cancer drugs. To assess whether and how PI3K/Akt/mTOR inhibitors interacted with Dex anti-lymphoma effects, experiments were conducted to evaluate the efficacy of the combined treatment in vitro using such readouts as cell viability (MTT test) and apoptosis (PARP cleavage and sub-G1-phase cell population determined by FACS).
(Tetrazolium dyes change colour on reduction, which living cells bring about.)

Data set [2] concerns Granta cells. The data set is described as follows: MTT cell viability / cytotoxicity assay in Granta cells. In kind it is cell-based, human. To be noted: for IC50: Homo sapiens, MTT assay, after 24 h treatment. The procedure: as §1, §2, §3
The subject of a further data set is Granta xenografts. The data set is described as follows: Granta lymphoma xenograft tumor growth study. Type of data set: in vivo, nu/nu mice. The conditions noted are these: 27th day of treatment, vs control; i.p. every 48 h; LY294002 20 mg/kg, Rapa 5 mg/kg, Dex 1 mg/kg. The procedure:
Xenograft tumor growth study. 10 million Granta cells in 200 ul BD Matrigel Matrix were subcutaneously injected into the right flank of 7 weeks old female nu/nu mice (Taconic). Animals were randomized and treated every 48 h with LY294002 (20 mg/kg), Rapamycin (5 mg/kg) of vehicle (30% PEG3350, 4% DMSO, 5% Tween 20 in PBS) followed by Dex (1 mg/kg) of vehicle (5% DMSO in PBS) 6 h later. Body weight was recorded twice a week. Tumor size was measured twice a week by digital calipers, drug interaction mode was calculated based on combination index method (Refs. 16,17; incorporated by reference in their entireties). Combination index (CI) of Dex+Rapa/LY294002 was calculated as ratio (observed fraction value of combination group)/(expected fraction value of combination group). The observed fractions were calculated as ratio (mean value of experiment)/(mean value of control), and the expected fractions values of combination effect between combined groups and single drug groups were calculated as expected fraction=(mean observed fraction of Dex)×(mean observed fraction of Rapa/LY294002). CI<1, CI=1 and CI>1 indicates a synergy, additive effect and antagonism, respectively.
Histological analysis and immunostaining. […] Ki67 and Caspase 3 were detected by immunostaining with antibodies to Ki-67 and Caspase-3 (Cell Signaling, San Jose, CA).
Morphometric analysis. Quantification of the epidermal width, dermal adipose thickness, bone thickness and cellularity of xenograft tissue was performed in sections stained with hematoxylin and eosin. At least 5 individual fields per slide of each individual sample/treatment (at least 50 images/treatment group) were analyzed using Axioplan2 microscope software (Carl Zeiss). […]
Animals were randomized to different treatment groups after tumor volume reached 50 mm3. […] All treatment regiments were only minimally toxic according to the steady increase in body weight monitored twice weekly (FIG. 11). Tumor volume was measured also twice a week (FIG. 12).

The test system of data set [3] is Dex-induced osteoporosis and skin atrophy. Description: Glucocorticoid-induced osteoporosis (GIOP) and skin atrophy model. In kind it is in vivo, BALB/c female mice. The procedure: Glucocorticoid-induced osteoporosis (GIOP). GIOP was induced as described (18) by i.p. injection of Dex (10 mg/kg) in 12 weeks old BALB/c female mice (“Stolbovaya”, Moscow region, Russia) every 48 h for 5 weeks. 6 h prior to Dex, animals were treated i.p. with LY294002 (20 mg/kg), Rapamycin (5 mg/kg) of vehicle (30% PEG3350, 4% DMSO, 5% Tween-20 in PBS). Body weight was recorded twice a week.
Histological analysis and immunostaining. Xenograft and skin samples were fixed in formaldehyde, embedded in paraffin, sections were stained with hematoxylin and eosin. The bone samples after formaldehyde fixation were decalcinated in decalcination buffer (0.5 M EDTA, 0.7 mM NaOH, pH=7.0) for 14 days, then washed with PBS twice and further processed according to standard histology protocol. Ki67 and Caspase 3 were detected by immunostaining with antibodies to Ki-67 and Caspase-3 (Cell Signaling, San Jose, CA).
Morphometric analysis. Quantification of the epidermal width, dermal adipose thickness, bone thickness and cellularity of xenograft tissue was performed in sections stained with hematoxylin and eosin. At least 5 individual fields per slide of each individual sample/treatment (at least 50 images/treatment group) were analyzed using Axioplan2 microscope software (Carl Zeiss). The epidermal, dermal adipose, or bone thickness and cell density in treated animals is presented as % to control animals.
To test whether REDD1 inhibitors protect against systemic atrophic effects of Gcs, a model of Gcs-induced osteoporosis in Balb/c female mice was used (18) to assess atrophy in both bone and skin induced by high-dose i.p. Dex injections (10 mg/kg) every 48 h for 5 weeks. LY294002 (20 mg/kg), Rapa (5 mg/kg) or vehicle were injected 6 h prior animal treatment with Dex.

A further data set has as its system REDD1. The data set is described as follows: REDD1 mRNA/protein expression (Q-PCR, Western blot) in CEM and Granta cells. In kind it is cell-based, human. The procedure: as §1
(§4) Western blot analysis. Western blot analysis was performed (Ref 10; incorporated by reference in its entirety). The following antibodies were used: GR (H-300) (Santa Cruz Biotechnology, Dallas, TX), phospho-GR (Ser211), phospho-4E-BP1 (Thr37/46), phospho-Akt (Ser473), Akt, 4E-BP1, cleaved and full-length PARP, GAPDH, HDAC1 (Cell Signaling, San Jose, CA), REDD1 (Proteintech Group, Rosemont, IL).
RNA extraction and Q-PCR. […]
(A western blot detects proteins with antibodies after separation by electrophoresis.)

Data set [4] concerns GR. The data set is described as follows: GRE.Luciferase reporter assay (GR transactivation) in CEM and Granta cells. In kind it is cell-based, human. The procedure: Luciferase assay. GRE.Luc, NF-κB.Luc and control mCMV.Luc reporter cells were generated (Ref. 13; incorporated by reference in its entirety) using viral stocks obtained from Northwestern University SDRC DNA/RNA delivery Core. Luciferase activity was measured (Ref. 10; incorporated by reference in its entirety).
REDD1 is a GR target gene (Refs. 10,21; incorporated by reference in their entireties). To assess whether REDD1 inhibitors could modify GR function, LY294002, WM and AZD8055 effect on GR TA and TR was evaluated using CEM and Granta cells transduced with GRE.Luc and NF-kB.Luc reporters. […] Luciferase activity in both cell lines (FIG. 2A, C). […] Attenuation of GR TA was further confirmed by Q-PCR analysis of known GR-target genes including GR chaperone FKBP51 (Refs. 12,14; incorporated by reference in their entireties), mediator of Gcs anti-inflammatory effects GILZ (22,23), transcriptional activator KLF9 (24) and inhibitor of cytokine production MKP-1 (25) (FIG. 2B, D and FIG. 7A, B).

Data set [5] deals with GR. Description: Western blot of GR nuclear translocation. In kind it is cell-based, human. To be noted: CEM and Granta cells; LY294002 50 uM, AZD8055 1 uM, Dex 1 uM 24 h. The procedure:
as §4
To identify the molecular mechanisms underlying GR functional changes induced by PI3K/Akt/mTOR inhibitors, the effect of these compounds on major steps in GR activation was assessed: GR phosphorylation at Ser211 and nuclear translocation that are critical for GR TA (Refs. 27,28; incorporated by reference in their entireties).

The subject of data set [6] is CEM cells. Description: Apoptosis induction (PI staining sub-G1, PARP cleavage) in CEM cells. In kind it is cell-based, human. The procedure: (§5) Apoptosis induction was evaluated using Western blot analysis of PARP cleavage and propidium iodine (PI) staining (Ref. 14; incorporated by reference in its entirety).
(§6) Cooperative anti-lymphoma effects of Dex and PI3K/Akt/mTOR inhibitors in vitro. PI3K/Akt/mTOR inhibitors were developed as anti-cancer drugs. To assess whether and how PI3K/Akt/mTOR inhibitors interacted with Dex anti-lymphoma effects, experiments were conducted to evaluate the efficacy of the combined treatment in vitro using such readouts as cell viability (MTT test) and apoptosis (PARP cleavage and sub-G1-phase cell population determined by FACS). The cytotoxic effect of Dex and PI3K inhibitors in wide concentration range (LY294002 1-500 uM, WM 0.1-25 uM, AZD8055 0.05-5 uM) was assessed (FIG. 8) and determined IC50 values after 24 h treatment (Table 8).
(§7) The effect of Dex combined with LY294002, AZD8055, WM or reference inhibitor Rapa was examined on apoptosis.

For data set [7], the system named is Granta cells. Description: Apoptosis induction (PI staining sub-G1, PARP cleavage) in Granta cells. Type of data set: cell-based, human. The procedure:
as §5, §6, §7

[8] abbreviates: used alone for 6 days, LY294002 50 uM, AZD8055 1 uM, WM 10 uM, Dex 1 uM.
[9] abbreviates: systemic Dex 10 mg/kg every 48 h, 5 weeks, LY294002 20 mg/kg.
Setting [10] is: combination with Dex, IC50 after 24 h treatment.

Usually IC50 stands for the midpoint of a concentration-inhibition curve.

`C[C@@H]1C[C@H]2[C@@H]3CCC4=CC(=O)C=C[C@]4(C)[C@@]3(F)[C@@H](O)C[C@]2(C)[C@@]1(O)C(=O)CO` [Dexamethasone]: the “decrease of CEM survival” value in the data set with CEM cells [1] (setting [8]) is 50-55%. Further, in the data set on Granta cells [2] (setting [8]), the “decrease of Granta survival” value is 50-55%. The “decrease in tumor volume” value with Granta xenografts was approximately 40%. In data set [3] (Dex 10 mg/kg vs control), the femoral bone thickness result was “tendency in decrease”. In addition, in data set [3] (setting [9]), the “reduction in dermal adipose thickness” value is approximately 70% and the “reduction in epidermal thickness” value is listed as approximately 50%.

With `COC[C@H]1OC(=O)c2coc3c2[C@@]1(C)C1=C(C3=O)[C@@H]2CCC(=O)[C@@]2(C)C[C@H]1OC(C)=O` [Wortmannin], the results for the IC50 in the data set with CEM cells [1] and with Granta cells [2] were 9.14 µM and 11.9 µM, respectively.

For `COc1ccc(-c2ccc3c(N4CCOC[C@@H]4C)nc(N4CCOC[C@@H]4C)nc3n2)cc1CO` [AZD8055], the IC50 with CEM cells [1] came out at 1.36 µM; in the data set on Granta cells [2], 2.02 µM. Also, the “type of interaction with Dex (isobologram analysis), CEM cells” value in the data set with CEM cells [1] (setting [10]) was “mostly additive”. Further, the “type of interaction with Dex (isobologram analysis), Granta cells” value in the data set with Granta cells [2] (setting [10]) is given as “mostly additive”. In the data set with REDD1 (CEM and Granta cells, 6 h pre-treatment (LY294002 50 uM, WM 10 uM, AZD8055 1 uM), then Dex 24 h), the “effect on REDD1 induction by Dex” value is “prevented REDD1 induction”. The “basal REDD1 expression” value in the data set with REDD1 (inhibitor without Dex, mRNA in CEM cells, protein more pronounced in Granta cells) is “blocked basal and glucocorticoid-induced REDD1 expression”. In addition, the “Dex-induced GRE.Luciferase activity” value in the data set with GR [4] (6 h pre-treatment, Dex 1 uM 24 h) is “inhibited Dex-induced GRE. Luciferase activity”. Besides, the “basal GR activity (GRE.Luciferase)” value in the data set with GR [4] (applied individually) is on record as “negatively affected basal GR activity”. In the data set on GR [5], the GR nuclear import result is recorded as “significantly prevented GR nuclear import”. Also, in the data set on CEM cells [6], the “apoptosis (sub-G1-phase cell population), used alone, CEM cells” value was “stimulated apoptosis”. For the same compound, the “apoptosis (sub-G1-phase cell population), used alone, Granta cells” value with Granta cells [7] is “stimulated apoptosis”.

Take `CO[C@H]1C[C@@H]2CC[C@@H](C)[C@@](O)(O2)C(=O)C(=O)N2CCCC[C@H]2C(=O)O[C@H]([C@H](C)C[C@@H]2CC[C@@H](O)[C@H](OC)C2)CC(=O)[C@H](C)/C=C(\C)[C@@H](O)[C@@H](OC)C(=O)[C@H](C)C[C@H](C)/C=C/C=C/C=C/1C` [Rapamycin]: the “decrease in tumor volume” value in the data set on Granta xenografts was approximately 75%.

As to `O=c1cc(N2CCOCC2)oc2c(-c3ccccc3)cccc12` [LY294002], the IC50 in the data set with CEM cells [1] was found to be 62 µM; in the data set with Granta cells [2], 77.6 µM. Also, the “decrease in tumor volume” value in the data set on Granta xenografts is on record as approximately 70%.

The values above are taken from patent US20240058349A1, “PI3K INHIBITORS FOR PROTECTION AGAINST GLUCOCORTICOID-INDUCED ATROPHY” (Northwestern University, priority 2020, published 2024).
